Literature values as cited in patent publication US10624840B2, “Method for performing cosmetic surgical procedures using tumescent anesthesia and oral sedation” (priority 2017, dated 2020).

Tested on: patient
Conditions: oral

## O=C1Nc2ccc(Cl)cc2C(c2ccccc2Cl)=NC1O (stereo not shown) [Lorazepam, lorazepam]
  duration of lasting effects on a patient: 10 to 20 h
